Each structure is given as a SMILES string.

For the assay, the target named is T1, human NK-3 receptor (Homo sapiens, UniProt P29371).
T1 construct: expressed in transfected cells; host or cells: HEK293
T1 sequence (P29371 1-465): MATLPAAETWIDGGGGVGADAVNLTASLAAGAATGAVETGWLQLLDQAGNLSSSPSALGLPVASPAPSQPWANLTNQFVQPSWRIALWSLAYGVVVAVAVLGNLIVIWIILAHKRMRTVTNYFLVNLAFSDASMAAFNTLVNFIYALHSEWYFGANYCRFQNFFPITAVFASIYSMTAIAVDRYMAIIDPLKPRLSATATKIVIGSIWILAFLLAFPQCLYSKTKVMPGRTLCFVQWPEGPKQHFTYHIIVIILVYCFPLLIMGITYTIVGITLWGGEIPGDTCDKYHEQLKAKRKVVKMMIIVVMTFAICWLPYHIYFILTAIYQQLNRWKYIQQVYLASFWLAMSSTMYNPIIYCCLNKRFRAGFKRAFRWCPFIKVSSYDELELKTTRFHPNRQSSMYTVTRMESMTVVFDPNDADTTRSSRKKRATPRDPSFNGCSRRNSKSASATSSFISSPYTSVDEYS
Put plainly: Antagonistic activity on human NK-3 receptor in human NK-3R/HEK293 stably transfected cells (Fluo-4, FLIPR, Neurokinin B as agonist). Type of assay: cell-based. The note with it: human NK-3R/HEK293 cells. The method, then:
Test Example 1: Determination of Activity of Compounds of the Present Invention on Human NK-3 Receptor
This method is used to determine antagonistic effects of the compounds of the present invention on the activity of human NK-3 receptor proteins expressed in cell lines stably transfected with human NK-3R/HEK293.
2.1 The cell lines stably transfected with human NK-3R/HEK293 were inoculated in a 384-well cell culture plate at a inoculation density of 12,000 cells/well/25 μL, and cultured at 37° C. and 5% CO2 overnight;
2.2 20× Component A was frozen and thawed to room temperature, diluted 2× with Assay Buffer to working concentration, and kept at room temperature for later use;
2.3 The cell culture plate was equilibrated at room temperature for 10 min, the culture medium was removed, and 20 μL of Assay Buffer and 20 μL of 2× Component A […] were added, followed by centrifugation at 200 g at room temperature for 3-5 sec, and incubation at 37° C. for 2 h;
2.4 The compound was diluted 3 times with DMSO in 384 PP_DMSO plate, and then 240 nl/well of the compound was transferred into a working plate with Echo 550, centrifugated at 200 g at room temperature for 1 min; 40 μl of Assay Buffer was added into the working plate, centrifugated at 200 g at room temperature for 1 min, and then fully mixed in an oscillator at 2500 rpm for 20 min, and then centrifugated at 200 g at room temperature for 1 min for later use;
2.5 2.5 nM Neurokinin B TFA (6×) was prepared from Assay Buffer, 50 uL of which was transferred onto 3657 plate for later use;
2.6 The cell culture plate was taken out and left to stand at room temperature for 10 min, then […] the compound diluted in step 2.4 was added into corresponding wells, and the cell culture plate was left to stand at 25° C. for 30 min; and
2.7 10 μL of the compound diluted in step 2.5 was added into the corresponding experimental wells with FLIPR Tetra, and data was collected.
The antagonistic activity of the compounds of the present invention on the human NK-3 receptor was determined through the above experiments, to obtain inhibition curves of the compounds of the present invention and determine concentrations (IC50) of the corresponding compounds that inhibit 50% of the reference agonist.
For `COCCc1nc(-c2nc(C)ns2)n2c1C(C)N(C(=O)c1ccc(F)cc1)CC2` (racemic) [Compound 204, rac-(R)-(4-fluorophenyl)(1-(2-methoxyethyl)-8-methyl-3-(3-methyl-1,2,4-thiadiazol-5-yl)-5,6-dihydroimidazo[1,5-a]pyrazin-7 (8H)-yl)methanone], the IC50 (usually the concentration at which inhibition is half-maximal) was 109 nM.

In turn, `Cc1nsc(-c2nc(-c3ccncc3)c3n2CCN(C(=O)c2ccc(F)cc2)C3C)n1` (stereo not shown) [Compound 005, (4-fluorophenyl)(8-methyl-3-(3-methyl-1,2,4-thiadiazol-5-yl)-1-(pyridin-4-yl)-5,6-dihydroimidazo[1,5-a]pyrazin-7 (8H)-yl)methanone] showed an IC50 of 64.6 nM. For the molecule `CC(=O)N(C)c1nc(-c2nc(C)ns2)n2c1C(C)N(C(=O)c1ccc(F)cc1)CC2` (stereo not shown) [Compound 010, N-(7-(4-fluorobenzoyl)-8-methyl-3-(3-methyl-1,2,4-thiadiazol-5-yl)-5,6,7,8-tetrahydroimidazo[1,5-a]pyrazin-1-yl)-N-methylacetamide], the 50% inhibitory concentration (IC50) stood at 33.4 nM. Molecule `Cc1nsc(-c2nc(-c3ccncc3)c3n2CCN(C(=O)c2ccc(F)cc2)[C@@H]3C)n1` [Compound 026, (R)-(4-fluorophenyl)(8-methyl-3-(3-methyl-1,2,4-thiadiazol-5-yl)-1-(pyridin-4-yl)-5,6-dihydroimidazo[1,5-a]pyrazin-7 (8H)-yl)methanone] gave a 50% inhibitory concentration (IC50) of 35 nM. Turning to `Cc1nsc(-c2nc(-c3ccncn3)c3n2CCN(C(=O)c2ccc(F)cc2)[C@@H]3C)n1` [Compound 027, (R)-(4-fluorophenyl)(8-methyl-3-(3-methyl-1,2,4-thiadiazol-5-yl)-1-(pyrimidin-4-yl)-5,6-dihydroimidazo[1,5-a]pyrazin-7 (8H)-yl)methanone], the IC50 was 29.7 nM. The IC50 values of the last two molecules are within 1.5-fold of each other. Under `Cc1nsc(-c2nc(-c3ccnnc3)c3n2CCN(C(=O)c2ccc(F)cc2)[C@@H]3C)n1` [Compound 028, (R)-(4-fluorophenyl)(8-methyl-3-(3-methyl-1,2,4-thiadiazol-5-yl)-1-(pyridazin-4-yl)-5,6-dihydroimidazo[1,5-a]pyrazin-7 (8H)-yl)methanone] stands 56.3 nM; under `Cc1nsc(-c2nc(N3CCOCC3)c3n2CCN(C(=O)c2ccc(F)cc2)[C@@H]3C)n1` [Compound 033, (R)-(4-fluorophenyl)(8-methyl-3-(3-methyl-1,2,4-thiadiazol-5-yl)-1-morpholino-5,6-dihydroimidazo[1,5-a]pyrazin-7 (8H)-yl)methanone], 50.6 nM; under `Cc1nsc(-c2nc(NS(C)(=O)=O)c3n2CCN(C(=O)c2ccc(F)cc2)[C@@H]3C)n1` [Compound 040, (R)—N-(7-(4-fluorobenzoyl)-8-methyl-3-(3-methyl-1,2,4-thiadiazol-5-yl)-5,6,7,8-tetrahydroimidazo[1,5-a]pyrazin-1-yl)methanesulfonamide], 51.7 nM. The result for `Cc1cc(-c2nc(-c3nc(C)ns3)n3c2[C@@H](C)N(C(=O)c2ccc(F)cc2)CC3)ccn1` [Compound 043, (R)-(4-fluorophenyl)(8-methyl-3-(3-methyl-1,2,4-thiadiazol-5-yl)-1-(2-methylpyridin-4-yl)-5,6-dihydroimidazo[1,5-a]pyrazin-7 (8H)-yl)methanone] reads 29.6 nM. The result for `Cc1nsc(-c2nc(-c3ccncc3F)c3n2CCN(C(=O)c2ccc(F)cc2)[C@@H]3C)n1` [Compound 046, (R)-(4-fluorophenyl)(1-(3-fluoropyridin-4-yl)-8-methyl-3-(3-methyl-1,2,4-thiadiazol-5-yl)-5,6-dihydroimidazo[1,5-a]pyrazin-7 (8H)-yl)methanone] reads 7.02 nM; that for `Cc1nsc(-c2nc(-c3cc(F)nc(F)c3)c3n2CCN(C(=O)c2ccc(F)cc2)[C@@H]3C)n1` [Compound 053, (R)-(1-(2,6-difluoropyridin-4-yl)-8-methyl-3-(3-methyl-1,2,4-thiadiazol-5-yl)-5,6-dihydroimidazo[1,5-a]pyrazin-7 (8H)-yl)(4-fluorophenyl)methanone], 20.2 nM. Regarding `CC(=O)N(C)c1nc(-c2nc(C)ns2)n2c1[C@@H](C)N(C(=O)c1ccc(F)cc1)CC2` [Compound 060, (R)—N-(7-(4-fluorobenzoyl)-8-methyl-3-(3-methyl-1,2,4-thiadiazol-5-yl)-5,6,7,8-tetrahydroimidazo[1,5-a]pyrazin-1-yl)-N-methylacetamide], the half-maximal inhibitory concentration (IC50) is 26.9 nM. Under `Cc1nsc(-c2nc(-c3c(F)cccc3F)c3n2CCN(C(=O)c2ccc(F)cc2)[C@@H]3C)n1` [Compound 063, (R)-(1-(2,6-difluorophenyl)-8-methyl-3-(3-methyl-1,2,4-thiadiazol-5-yl)-5,6-dihydroimidazo[1,5-a]pyrazin-7 (8H)-yl)(4-fluorophenyl)methanone] stands 47.6 nM; under `Cc1nsc(-c2nc(N(C)S(C)(=O)=O)c3n2CCN(C(=O)c2ccc(F)cc2)[C@@H]3C)n1` [Compound 064, (R)—N-(7-(4-fluorobenzoyl)-8-methyl-3-(3-methyl-1,2,4-thiadiazol-5-yl)-5,6,7,8-tetrahydroimidazo[1,5-a]pyrazin-1-yl)-N-methylmethanesulfonamide], 80.1 nM.

Molecule `Cc1nsc(-c2nc(N3CCCCC3=O)c3n2CCN(C(=O)c2ccc(F)cc2)[C@@H]3C)n1` [Compound 069, (R)-1-(7-(4-fluorobenzoyl)-8-methyl-3-(3-methyl-1,2,4-thiadiazol-5-yl)-5,6,7,8-tetrahydroimidazo[1,5-a]pyrazin-1-yl)piperidin-2-one] returned a half-maximal inhibitory concentration (IC50) of 7.43 nM. This IC50 is about 11-fold lower than that of the molecule before. In turn, `Cc1nsc(-c2nc(N3CCOCC3=O)c3n2CCN(C(=O)c2ccc(F)cc2)[C@@H]3C)n1` [Compound 072, (R)-4-(7-(4-fluorobenzoyl)-8-methyl-3-(3-methyl-1,2,4-thiadiazol-5-yl)-5,6,7,8-tetrahydroimidazo[1,5-a]pyrazin-1-yl)morpholin-3-one] yielded a half-inhibitory concentration (IC50) of 16.8 nM. `COc1cc(-c2nc(-c3nc(C)ns3)n3c2[C@@H](C)N(C(=O)c2ccc(F)cc2)CC3)ccn1` [Compound 080, (R)-(1-(2-methoxypyridin-4-yl)-8-methyl-3-(3-methyl-1,2,4-thiadiazol-5-yl)-5,6-dihydroimidazo[1,5-a]pyrazin-7 (8H)-yl)(4-fluorophenyl)methanone] registered a concentration for half-maximal inhibition (IC50) of 84.5 nM. Consider `Cc1nsc(-c2nc(N3CCN(C)CC3=O)c3n2CCN(C(=O)c2ccc(F)cc2)[C@@H]3C)n1` [Compound 084], for which the IC50 is 23.7 nM.

As for `COCC(=O)Nc1nc(-c2nc(C)ns2)n2c1[C@@H](C)N(C(=O)c1ccc(F)cc1)CC2` [Compound 089, (R)—N-(7-(4-fluorobenzoyl)-8-methyl-3-(3-methyl-1,2,4-thiadiazol-5-yl)-5,6,7,8-tetrahydroimidazo[1,5-a]pyrazin-1-yl)-2-methoxyacetamide], the IC50 amounted to 58.6 nM. The result for `Cc1nsc(-c2nc(N3CC=CC3=O)c3n2CCN(C(=O)c2ccc(F)cc2)[C@@H]3C)n1` [Compound 096, (R)-1-(7-(4-fluorobenzoyl)-8-methyl-3-(3-methyl-1,2,4-thiadiazol-5-yl)-5,6,7,8-tetrahydroimidazo[1,5-a]pyrazin-1-yl)-1,5-dihydro-2H-pyrrol-2-one] reads 67.9 nM. The result for `Cc1nsc(-c2nc(N3Cc4ccccc4CC3=O)c3n2CCN(C(=O)c2ccc(F)cc2)[C@@H]3C)n1` [Compound 100, (R)-2-(7-(4-fluorobenzoyl)-8-methyl-3-(3-methyl-1,2,4-thiadiazol-5-yl)-5,6,7,8-tetrahydroimidazo[1,5-a]pyrazin-1-yl)-1,4-dihydroisoquinolin-3 (2H)-one] reads 51.9 nM; that for `Cc1nsc(-c2nc(N3CCOC3=O)c3n2CCN(C(=O)c2ccc(F)cc2)[C@@H]3C)n1` [Compound 101, (R)-3-(7-(4-fluorobenzoyl)-8-methyl-3-(3-methyl-1,2,4-thiadiazol-5-yl)-5,6,7,8-tetrahydroimidazo[1,5-a]pyrazin-1-yl)oxazolidin-2-one], 20.2 nM.

The values above are taken from US20240228501A1, “IMIDAZOLE-CONTAINING CONDENSED RING DERIVATIVE, PREPARATION METHOD THEREFOR, AND APPLICATION THEREOF IN MEDICINE” (CHANGCHUN GENESCIENCE PHARMACEUTICAL CO., LTD., priority 2021, published 2024).
